For 61 molecules, melting point results are on record in a melting point compilation (Tetko et al.; mined from patent text by program, amines drawn as free bases though some values may be those of a salt).

As usually defined, the melting point is the temperature of the solid-liquid transition.

`CC(C)(C)c1cccc(S(=O)(=O)n2c(C(F)c3ccc(C(=O)O)cc3)cc3cc(C(F)(F)F)ccc32)c1` (stereo unspecified) came in with a melting point of 170 °C.
With `CN1C(=O)[C@H](NC(=O)Cc2ccc(C(F)(F)F)cc2)N=C(c2ccccc2)c2ccccc21`, the melting point is 224 to 226 °C.
Turning to `CC(C)Cc1c2c(nn1Cc1ccccc1)c(N)nc1ncccc12`, the melting point was 232 to 235 °C.
`Cn1c(C2CCN(C(=O)OC(C)(C)C)CC2)nc2cc(-c3ccc(S(C)(=O)=O)cc3F)ccc21` displayed a melting point of 85 to 88 °C.
Molecule `COc1ccc(CCN(C)CCCNc2c(Cl)cn[nH]c2=O)cc1OC` showed a melting point of 89 to 90 °C.
With `CCSc1cc(C=NO)c(Cl)cn1`, the melting point is 128 to 130 °C.
Molecule `Cc1ccc(C)c(-c2c3ccccc3nc3ccc(NC(=O)c4ccccc4)cc23)c1` came in with a melting point of 253 to 255 °C.
`COc1c(C(O)CNC(C)(C)Cc2c(C)cc(C)cc2C)ccc(O)c1O` (stereo unspecified) came in with a melting point of 98 to 105 °C.
Molecule `NS(=O)(=O)c1cc2c(cc1Cl)C(=O)NC2=O` displayed a melting point of 121 to 125 °C.
For the molecule `Cn1cc(S(=O)(=O)Cl)c(=O)c2cc(F)ccc21`, the melting point is > 300 °C.
Take `C=CCn1c(=O)c(C(=O)OCC)c(O)c2cnc(-c3ccccc3)nc21`: the melting point was in the range of 174 to 175 °C.
Turning to `CCCCCc1cc2c(nc(O)n2CC2CCOCC2)c(N)n1`, the melting point is > 250 °C.
Molecule `OCc1ccc(C2=C(C3CCCC3)CCC2=NO)cc1` came in with a melting point of 187 to 190 °C.
Molecule `CCn1c(=O)c2cccc3c2n(c1=O)-c1cc(C(F)(F)F)ccc1S3` came in with a melting point of 150 to 152 °C.
`CCOC(=O)c1ccc(-c2nc(COc3ccc(CO)cc3OC)c(C)o2)s1` gave a melting point of 108 to 109 °C.
For `CN1C(=O)CC[C@]2(C)c3ccc(-c4ccc(O)c(C=O)c4)cc3CC[C@@H]12`, the melting point fell in the range of 184 to 187 °C.
For the molecule `CS(=O)(=O)c1ccc(-c2cnn(CC(F)(F)F)c(=O)c2Nc2ccc(F)cc2)cc1`, the melting point lay in the range of 158 to 160 °C.
`CCCCNC(=O)NS(=O)(=O)c1ccccc1-c1nn(C)c(=O)o1` showed a melting point of 110 to 115 °C.
`Cc1ccc2[nH]c(C(=O)c3ccc(Cl)cc3)c(CC(=O)O)c2c1` gave a melting point of 194 to 197 °C.
To `OCCOc1cn(-c2ccc(F)cc2)c2cc(Cl)ccc12` belongs 97 to 98 °C.
To `CCc1nccn1CCc1ccc(Nc2ncc(C#N)c(-c3ccc(C(C)(C)N)cc3)n2)cc1` belongs 138 °C.
For `CN1c2ccccc2CC1COc1ccc(CC2SC(=O)NC2=O)cc1` (stereo unspecified), the melting point was in the range of 46.1 to 48.9 °C.
As to `C=CCOc1ccc(C(=O)c2ccccc2)cc1`, the melting point stood at 71 °C.
Turning to `CC(C)C1NS(=O)(=O)N(COC(=O)c2c(Cl)cccc2Cl)C1=O` (stereo unspecified), the melting point lay within 151 to 152 °C.
In the case of `CCOP(=O)(/C=C/c1cn(-c2ccccc2)nc1OCc1ccc(OCc2nc(-c3cccc(C#N)c3)oc2C)c(OC)c1)OCC`, the melting point was in the range of 147 to 148 °C.
To `CCCCCCCCCCCCCCOc1ccc(C(=O)OC)cc1OCCCCCCCCCCCCCC` belongs 50 to 51 °C.
`CCOc1ccc(Br)c(O)c1C(=O)NCC1CCCN1CC` (stereo unspecified) had a melting point of 74 to 76 °C.
In the case of `Cn1cc(C(=O)O)c(=O)c2c3cc(F)c(N4CCCC4)cc3ncc21` it was 365 °C; in that of `C1=C(c2c[nH]c3ccccc23)CCN(CC2COc3ccc4ncccc4c3O2)C1` (stereo unspecified), 217 °C; in that of `Cc1cccc(NC(=O)N(C)c2nc(-c3ccccc3)c(-c3ccc(=O)n(C(C)C)n3)s2)c1`, 157 to 158 °C.
For `O=C(NCC1(O)CCCCCC1)c1cc(-c2ccccc2C(=O)O)ccc1Cl`, the melting point was in the range of 113 to 116 °C.
Molecule `CC(C)Oc1cc(Oc2ccc(C(F)(F)F)cn2)ccc1CCCOc1cc(CCC(=O)O)n(C)n1` gave a melting point of 128 to 130 °C.
For the molecule `CN1CCC(c2cn(S(=O)(=O)c3ccccc3)c3ccc(OS(=O)(=O)c4ccccc4)cc23)CC1`, the melting point is 123 to 127 °C.
On to `C#CCNC(=S)Cc1ccccn1`, for which the melting point fell in the range of 62 to 63 °C.
On to `O=C1CCn2c(nc3ccccc32)N1`, for which the melting point was > 260 °C.
With `COC(=O)[C@H](Cc1ccc(NC=O)cc1)NC(C)=O`, the melting point was found to be 126 °C.
Regarding `COC(C)(C)C(Cl)=NO`, the melting point turned out to be 95 °C.
Turning to `O=C(SC1CCC1C(=O)N1CCC[C@H]1C(=O)O)c1ccccc1` (stereo partly specified), the melting point lay in the range of 123 to 124 °C.
On to `COc1ccc(Nc2cc(=O)n(-c3ccc(Cl)cc3)nc2-c2nc[nH]n2)cc1`, for which the melting point lay in the range of 251 to 252 °C.
In the case of `CCOC(=O)c1cn(-c2cccnc2)cn1` it was 102 to 103 °C.
For `Cc1cc2c(cc1C)N(C)C(=O)c1cccnc1N2`, the melting point was in the range of 206 to 209 °C.
To `CC1CCc2c3c(cc4ccccc24)C(=O)C(C(=O)O)CN31` (stereo unspecified) belongs 270 to 273 °C; to `NCCN1C(=O)c2ccccc2C1(O)c1ccccc1Cl` (stereo unspecified), 172 to 174 °C.
Consider `CC(=O)c1cc(N2CCOCC2)ccc1NC(=O)c1ccc(OCc2ccccc2)cc1`, for which the melting point lay in the range of 172 to 175 °C.
Consider `CCCc1cccc(Cl)c1C(=O)N[C@@H](Cc1ccc(-c2c(C)n(C)c(=O)n(C)c2=O)cc1)C(=O)O`, for which the melting point is 205 to 209 °C.
`COC(=O)C(=O)c1ccc(OCCOc2ccccc2)cc1`: the melting point is 79 to 81 °C.
Molecule `Cc1cc(C2=NOC(c3cc(Cl)cc(Cl)c3)(C(F)(F)F)C2)ccc1C(=O)Nc1cncnc1` (stereo unspecified) gave a melting point of 207 to 211 °C.
As to `CC(=O)N1CCC(=O)C(C(c2ccc(F)cc2)c2ccc(F)cc2)C1` (stereo unspecified), the melting point lay in the range of 146 to 147 °C.
The molecule `CCOC(=O)C1[C@H]2O[C@@H]3COC(C)(C)O[C@H]3C(=NO)[C@@H]12` (stereo partly specified) displayed a melting point of 210 to 213 °C.
In the case of `COc1ccc(-c2nc3cnncc3[nH]2)c(N(C)C)c1` it was 226 °C; in that of `CN(C=O)c1ccc(C2OC(C)(C)N=C2c2ccccc2)cc1` (stereo unspecified), 104 to 105 °C.
To `CS(=O)(=O)Cc1ccc(Oc2cc(OC3CCOCC3)c3[nH]c(C4=NCC(CC(N)=O)S4)cc3c2)cn1` (stereo unspecified) belongs 164 to 167 °C; to `O=S(=O)(C1CC1)N1CCC(Nc2nccc(-c3c(-c4ccc(F)c(O)c4)nc4sccn34)n2)CC1`, 224 to 225 °C; to `N#CCC(=O)Nc1ccc(-c2ncn(-c3ccc(OC(F)(F)F)cc3)n2)cc1`, 250 to 252 °C.
Consider `CCOCC1OC(n2cnc3c(NCc4cccc(I)c4)nc(Cl)nc32)C(O)C1O` (stereo unspecified), for which the melting point was in the range of 80 to 82 °C.
In turn, `C=CCNC(=O)N(O)Cc1c(C)n(C(=O)c2ccc(Cl)cc2)c2ccc(OC)cc12` had a melting point of 148 to 149 °C.
`CC(=O)NC12CCCC(C1)C1CCC2C1` (stereo unspecified) showed a melting point of 138 to 139 °C.
`CC(C)(C)c1ccc(-c2cc(C=O)cc3c2C(C)(C)CCC3(C)C)cc1` displayed a melting point of 129 °C.
To `O=C(O)/C=C/c1ccc(-c2nc3c(=O)n(CC4CCCCC4)c(=S)n(CC4CCCCC4)c3[nH]2)cc1` belongs > 300 °C; to `CCOC(=O)C(C1c2ccccc2Sc2ccccc21)[N+](=O)[O-]` (stereo unspecified), 111 to 115 °C; to `O=C(O)c1cc(OCCCOc2cccc(-c3ccccc3)c2)cc(OCCCOc2cccc(-c3ccccc3)c2)c1`, 65 to 69 °C.
